Article PMC8217170, “Phase Ib dose-escalation study of the hypoxia-modifier Myo-inositol trispyrophosphate in patients with hepatopancreatobiliary tumors” (Nature Communications, 2021)

Assay: Plasma levels and pharmacokinetics of intravenous ITPP

Compound: O=P1(O)OC2C3OP(=O)(O)OP(=O)(O)OC3C3OP(=O)(O)OP(=O)(O)OC3C2OP(=O)(O)O1 (centres unmarked) [ITPP, Myo-inositol trispyrophosphate]
- ITPP plasma level, Concentration (Cohort 6, Patient 18, Day 5, Hour 10): 60.6 µg/mL
- ITPP plasma level, Concentration (Cohort 6, Patient 19, Day 1, Hour 0): 0 µg/mL
- ITPP plasma level, Concentration (Cohort 6, Patient 19, Day 1, Hour 3): 392 µg/mL
- ITPP plasma level, Concentration (Cohort 6, Patient 19, Day 1, Hour 6): 294 µg/mL
- ITPP plasma level, Concentration (Cohort 6, Patient 19, Day 1, Hour 8.5): 219 µg/mL
- ITPP plasma level, Concentration (Cohort 6, Patient 19, Day 1, Hour 9): 185 µg/mL
- ITPP plasma level, Concentration (Cohort 6, Patient 19, Day 1, Hour 10): 154 µg/mL
- ITPP plasma level, Concentration (Cohort 6, Patient 19, Day 5, Hour 0): 0 µg/mL
- ITPP plasma level, Concentration (Cohort 6, Patient 19, Day 5, Hour 3): 287 µg/mL
- ITPP plasma level, Concentration (Cohort 6, Patient 19, Day 5, Hour 6): 329 µg/mL
- ITPP plasma level, Concentration (Cohort 6, Patient 19, Day 5, Hour 8.5): 265 µg/mL
- ITPP plasma level, Concentration (Cohort 6, Patient 19, Day 5, Hour 9): 244 µg/mL
- ITPP plasma level, Concentration (Cohort 6, Patient 19, Day 5, Hour 10): 216 µg/mL
- ITPP plasma level, Concentration (Cohort 6, Patient 20, Day 1, Hour 0): 0 µg/mL
- ITPP plasma level, Concentration (Cohort 6, Patient 20, Day 1, Hour 3): 279 µg/mL
- ITPP plasma level, Concentration (Cohort 6, Patient 20, Day 1, Hour 6): 307 µg/mL
- ITPP plasma level, Concentration (Cohort 6, Patient 20, Day 1, Hour 8.5): 282 µg/mL
- ITPP plasma level, Concentration (Cohort 6, Patient 20, Day 1, Hour 9): 396 µg/mL
- ITPP plasma level, Concentration (Cohort 6, Patient 20, Day 1, Hour 10): 396 µg/mL
- ITPP plasma level, Concentration (Cohort 6, Patient 20, Day 5, Hour 0): 0 µg/mL
- ITPP plasma level, Concentration (Cohort 6, Patient 20, Day 5, Hour 3): 411 µg/mL
- ITPP plasma level, Concentration (Cohort 6, Patient 20, Day 5, Hour 6): 595 µg/mL
- ITPP plasma level, Concentration (Cohort 6, Patient 20, Day 5, Hour 8.5): 466 µg/mL
- ITPP plasma level, Concentration (Cohort 6, Patient 20, Day 5, Hour 9): 301 µg/mL
- ITPP plasma level, Concentration (Cohort 6, Patient 20, Day 5, Hour 10): 279 µg/mL
- ITPP plasma level, Concentration (Cohort 6, Patient 21, Day 1, Hour 0): 0 µg/mL
- ITPP plasma level, Concentration (Cohort 6, Patient 21, Day 1, Hour 3): 249 µg/mL
- ITPP plasma level, Concentration (Cohort 6, Patient 21, Day 1, Hour 6): 325 µg/mL
- ITPP plasma level, Concentration (Cohort 6, Patient 21, Day 1, Hour 8.5): 281 µg/mL
- ITPP plasma level, Concentration (Cohort 6, Patient 21, Day 1, Hour 9): 241 µg/mL
- ITPP plasma level, Concentration (Cohort 6, Patient 21, Day 1, Hour 10): 172 µg/mL
- ITPP plasma level, Concentration (Cohort 6, Patient 21, Day 5, Hour 0): 0 µg/mL
- ITPP plasma level, Concentration (Cohort 6, Patient 21, Day 5, Hour 3): 350 µg/mL
- ITPP plasma level, Concentration (Cohort 6, Patient 21, Day 5, Hour 6): 204 µg/mL
- ITPP plasma level, Concentration (Cohort 6, Patient 21, Day 5, Hour 8.5): 217 µg/mL
- ITPP plasma level, Concentration (Cohort 6, Patient 21, Day 5, Hour 9): 184 µg/mL
- ITPP plasma level, Concentration (Cohort 6, Patient 21, Day 5, Hour 10): 125 µg/mL
- ITPP plasma level, Concentration (Cohort 7, Patient 22, Day 1, Hour 0): 0 µg/mL
- ITPP plasma level, Concentration (Cohort 7, Patient 22, Day 1, Hour 3): 280 µg/mL
- ITPP plasma level, Concentration (Cohort 7, Patient 22, Day 1, Hour 6): 384 µg/mL
- ITPP plasma level, Concentration (Cohort 7, Patient 22, Day 1, Hour 8.5): 281 µg/mL
- ITPP plasma level, Concentration (Cohort 7, Patient 22, Day 1, Hour 9): 215 µg/mL
- ITPP plasma level, Concentration (Cohort 7, Patient 22, Day 1, Hour 10): 152 µg/mL
- ITPP plasma level, Concentration (Cohort 7, Patient 22, Day 5, Hour 0): 0 µg/mL
- ITPP plasma level, Concentration (Cohort 7, Patient 22, Day 5, Hour 3): 257 µg/mL
- ITPP plasma level, Concentration (Cohort 7, Patient 22, Day 5, Hour 6): 351 µg/mL
- ITPP plasma level, Concentration (Cohort 7, Patient 22, Day 5, Hour 8.5): 319 µg/mL
- ITPP plasma level, Concentration (Cohort 7, Patient 22, Day 5, Hour 9): 302 µg/mL
- ITPP plasma level, Concentration (Cohort 7, Patient 22, Day 5, Hour 10): 203 µg/mL
- ITPP plasma level, Concentration (Cohort 7, Patient 23, Day 1, Hour 0): 0 µg/mL
- ITPP plasma level, Concentration (Cohort 7, Patient 23, Day 1, Hour 3): 286 µg/mL
- ITPP plasma level, Concentration (Cohort 7, Patient 23, Day 1, Hour 6): 329 µg/mL
- ITPP plasma level, Concentration (Cohort 7, Patient 23, Day 1, Hour 8.5): 316 µg/mL
- ITPP plasma level, Concentration (Cohort 7, Patient 23, Day 1, Hour 9): 178 µg/mL
- ITPP plasma level, Concentration (Cohort 7, Patient 23, Day 1, Hour 10): 119 µg/mL
- ITPP plasma level, Concentration (Cohort 7, Patient 23, Day 5, Hour 0): 0 µg/mL
- ITPP plasma level, Concentration (Cohort 7, Patient 23, Day 5, Hour 3): 282 µg/mL
- ITPP plasma level, Concentration (Cohort 7, Patient 23, Day 5, Hour 6): 478 µg/mL
- ITPP plasma level, Concentration (Cohort 7, Patient 23, Day 5, Hour 8.5): 418 µg/mL
- ITPP plasma level, Concentration (Cohort 7, Patient 23, Day 5, Hour 9): 188 µg/mL
- ITPP plasma level, Concentration (Cohort 7, Patient 23, Day 5, Hour 10): 185 µg/mL
- ITPP plasma level, Concentration (Cohort 7, Patient 24, Day 1, Hour 0): 0 µg/mL
- ITPP plasma level, Concentration (Cohort 7, Patient 24, Day 1, Hour 3): 278 µg/mL
- ITPP plasma level, Concentration (Cohort 7, Patient 24, Day 1, Hour 6): 230 µg/mL
- ITPP plasma level, Concentration (Cohort 7, Patient 24, Day 1, Hour 8.5): 226 µg/mL
- ITPP plasma level, Concentration (Cohort 7, Patient 24, Day 1, Hour 9): 152 µg/mL
- ITPP plasma level, Concentration (Cohort 7, Patient 24, Day 1, Hour 10): 103 µg/mL
- ITPP plasma level, Concentration (Cohort 7, Patient 24, Day 2, Hour 0): 0 µg/mL
- ITPP plasma level, Concentration (Cohort 7, Patient 24, Day 2, Hour 9): 143 µg/mL
- ITPP plasma level, Concentration (Cohort 7, Patient 24, Day 3, Hour 0): 0 µg/mL
- ITPP plasma level, Concentration (Cohort 7, Patient 24, Day 3, Hour 9): 237 µg/mL
- ITPP plasma level, Concentration (Cohort 7, Patient 24, Day 4, Hour 0): 0 µg/mL
- ITPP plasma level, Concentration (Cohort 7, Patient 24, Day 4, Hour 9): 199 µg/mL
- ITPP plasma level, Concentration (Cohort 7, Patient 24, Day 5, Hour 0): 0 µg/mL
- ITPP plasma level, Concentration (Cohort 7, Patient 24, Day 5, Hour 3): 299 µg/mL
- ITPP plasma level, Concentration (Cohort 7, Patient 24, Day 5, Hour 6): 358 µg/mL
- ITPP plasma level, Concentration (Cohort 7, Patient 24, Day 5, Hour 8.5): 245 µg/mL
- ITPP plasma level, Concentration (Cohort 7, Patient 24, Day 5, Hour 9): 200 µg/mL
- ITPP plasma level, Concentration (Cohort 7, Patient 24, Day 5, Hour 10): 141 µg/mL
- ITPP plasma level, Concentration (Cohort 7, Patient 24, Day 6, Hour 0): 0 µg/mL
- ITPP plasma level, Concentration (Cohort 7, Patient 24, Day 6, Hour 9): 200 µg/mL
- ITPP plasma level, Concentration (Cohort 7, Patient 24, Day 7, Hour 0): 0 µg/mL
- ITPP plasma level, Concentration (Cohort 7, Patient 24, Day 7, Hour 9): 208 µg/mL
- ITPP plasma level, Concentration (Cohort 7, Patient 24, Day 8, Hour 0): 0 µg/mL
- ITPP plasma level, Concentration (Cohort 7, Patient 24, Day 8, Hour 9): 181 µg/mL
- ITPP plasma level, Concentration (Cohort 7, Patient 24, Day 9, Hour 0): 0 µg/mL
- ITPP plasma level, Concentration (Cohort 7, Patient 24, Day 9, Hour 3): 247 µg/mL
- ITPP plasma level, Concentration (Cohort 7, Patient 24, Day 9, Hour 6): 345 µg/mL
- ITPP plasma level, Concentration (Cohort 7, Patient 24, Day 9, Hour 8.5): 217 µg/mL
- ITPP plasma level, Concentration (Cohort 7, Patient 24, Day 9, Hour 9): 199 µg/mL
- ITPP plasma level, Concentration (Cohort 7, Patient 24, Day 9, Hour 10): 143 µg/mL
- ITPP plasma level, Concentration (Cohort 8, Patient 25, Day 1, Hour 0): 0 µg/mL
- ITPP plasma level, Concentration (Cohort 8, Patient 25, Day 1, Hour 3): 388 µg/mL
- ITPP plasma level, Concentration (Cohort 8, Patient 25, Day 1, Hour 6): 497 µg/mL
- ITPP plasma level, Concentration (Cohort 8, Patient 25, Day 1, Hour 8.5): 505 µg/mL
- ITPP plasma level, Concentration (Cohort 8, Patient 25, Day 1, Hour 9): 317 µg/mL
- ITPP plasma level, Concentration (Cohort 8, Patient 25, Day 1, Hour 10): 194 µg/mL
- ITPP plasma level, Concentration (Cohort 8, Patient 25, Day 5, Hour 0): 0 µg/mL
- ITPP plasma level, Concentration (Cohort 8, Patient 25, Day 5, Hour 3): 354 µg/mL
- ITPP plasma level, Concentration (Cohort 8, Patient 25, Day 5, Hour 6): 495 µg/mL
- AUC (cohort 1, 1866 mg/m2): 350.7 µg·h/mL
- AUMC (cohort 1, 1866 mg/m2): 1994.7 h2*mg/L
- CL (cohort 1, 1866 mg/m2): 4.8 L/h
- Clast (cohort 1, 1866 mg/m2): 19200 ng/mL
- Cmax (cohort 1, 1866 mg/m2): 47200 ng/mL
- Cmin (cohort 1, 1866 mg/m2): 0 ng/mL
- Elimination rate λz (cohort 1, 1866 mg/m2): 0.5 h⁻¹
- Half life/T0.5 (cohort 1, 1866 mg/m2): 1.3 h
- MRT (cohort 1, 1866 mg/m2): 1.7 h
- Tlast (cohort 1, 1866 mg/m2): 10.0 h
